In US20050113292A1 (priority 2003, published 2005):
pEC50, pIC50: −log10 of the molar value. Where two headings read alike, the source gives them in different places.

Experiments:
[1] = biological target: gp41 of T-tropic HIV-1 R8 virus (HIV-1 (R8)); assay: cell-based or functional assay
M-tropic (BAL) HIV-1 = settings: for pIC50: M-tropic (BAL)
HIV-1 = assay type: cell-based
[2] = tested on: HIV-1 mediated cell-cell fusion (R8 virus)
R9 HIV-1 virus = assay type: cell-based
[3] = mediated cell-cell fusion (R8 virus)

N36 (from UniProt P04578 546-581) (peptide)
IC50, HIV-1 mediated cell-cell fusion (syncytium formation), R8 virus [1]: > 1000 nM

CC[C@H](C)[C@H](NC(=O)[C@H](CC(C)C)NC(=O)[C@H](CO)NC(=O)[C@H](Cc1c[nH]cn1)NC(=O)[C@@H](NC(=O)[C@H](CC(C)C)NC(=O)[C@H](CO)NC(=O)[C@@H](NC(=O)[C@H](Cc1ccc(O)cc1)NC(=O)[C@H](CC(N)=O)NC(=O)[C@H](CC(N)=O)NC(=O)[C@@H](NC(=O)[C@H](CCC(=O)O)NC(=O)[C@H](CCCNC(=N)N)NC(=O)[C@H](CC(=O)O)NC(=O)[C@H](Cc1c[nH]c2ccccc12)NC(=O)[C@H](CCC(=O)O)NC(=O)[C@H](CCSC)NC(=O)[C@@H]1Cc2c([nH]c3ccccc23)C(C(=O)NCCCC[C@H](NC(=O)CCNC(=O)C2N[C@H](C(=O)N[C@@H](CCSC)C(=O)N[C@@H](CCC(=O)O)C(=O)N[C@@H](Cc3c[nH]c4ccccc34)C(=O)N[C@@H](CC(=O)O)C(=O)N[C@@H](CCCNC(=N)N)C(=O)N[C@@H](CCC(=O)O)C(=O)N[C@H](C(=O)N[C@@H](CC(N)=O)C(=O)N[C@@H](CC(N)=O)C(=O)N[C@@H](Cc3ccc(O)cc3)C(=O)N[C@H](C(=O)N[C@@H](CO)C(=O)N[C@@H](CC(C)C)C(=O)N[C@H](C(=O)N[C@@H](Cc3c[nH]cn3)C(=O)N[C@@H](CO)C(=O)N[C@@H](CC(C)C)C(=O)N[C@H](C(=O)N[C@@H](CCC(=O)O)C(=O)N[C@@H](CCC(=O)O)C(=O)N[C@@H](CO)C(=O)N[C@@H](CCC(N)=O)C(=O)N[C@@H](CC(N)=O)C(=O)N[C@@H](CCC(N)=O)C(=O)N[C@@H](CCC(N)=O)C(=O)N[C@@H](CCC(=O)O)C(=O)N[C@@H](CCCCN)C(=O)N[C@@H](CC(N)=O)C(=O)N[C@@H](CCC(=O)O)C(=O)N[C@@H](CCC(N)=O)C(=O)N[C@@H](CCC(=O)O)C(=O)N[C@@H](CC(C)C)C(=O)N[C@@H](CC(C)C)C(=O)O)[C@@H](C)CC)[C@@H](C)CC)[C@@H](C)O)[C@@H](C)CC)Cc3c2[nH]c2ccccc32)C(=O)N[C@@H](CO)C(=O)N[C@@H](CO)C(=O)N[C@@H](C)C(N)=O)N1)[C@@H](C)CC)[C@@H](C)O)[C@@H](C)CC)C(=O)N[C@@H](CCC(=O)O)C(=O)N[C@@H](CCC(=O)O)C(=O)N[C@@H](CO)C(=O)N[C@@H](CCC(N)=O)C(=O)N[C@@H](CC(N)=O)C(=O)N[C@@H](CCC(N)=O)C(=O)N[C@@H](CCC(N)=O)C(=O)N[C@@H](CCC(=O)O)C(=O)N[C@@H](CCCCN)C(=O)N[C@@H](CC(N)=O)C(=O)N[C@@H](CCC(=O)O)C(=O)N[C@@H](CCC(N)=O)C(=O)N[C@@H](CCC(=O)O)C(=O)N[C@@H](CC(C)C)C(=O)N[C@@H](CC(C)C)C(=O)O (stereo partly drawn) [Compound 2α-C34]
fold increase of potency over monomer, BAL virus (M-tropic (BAL) HIV-1): 45 fold
pIC50 (M-tropic (BAL) HIV-1): 10.05
Neutralization (%) (HIV-1): <5%
fold increase of potency over monomer, R8 virus (T-tropic (R8) HIV-1): 42 fold
fold increase over monomer, cell-cell fusion [2]: 74 fold
pEC50 [2, 3]: 9.33
pIC50 [2, 3]: 9.33

CC[C@H](C)[C@H](NC(=O)CNC(=O)[C@H](Cc1c[nH]c2ccccc12)NC(=O)[C@@H](NC(=O)[C@@H](NC(=O)[C@H](CC(C)C)NC(=O)[C@H](CCC(N)=O)NC(=O)[C@H](CC(C)C)NC(=O)[C@H](CC(C)C)NC(=O)[C@H](Cc1c[nH]cn1)NC(=O)[C@H](CCC(N)=O)NC(=O)[C@H](CCC(N)=O)NC(=O)[C@H](C)NC(=O)[C@H](CCC(=O)O)NC(=O)[C@@H](NC(=O)[C@H](C)NC(=O)[C@H](CCCNC(=N)N)NC(=O)[C@H](CC(C)C)NC(=O)[C@H](CC(C)C)NC(=O)[C@H](CC(N)=O)NC(=O)[C@H](CC(N)=O)NC(=O)[C@H](CCC(N)=O)NC(=O)[C@H](CCC(N)=O)NC(=O)[C@H](CCC(N)=O)NC(=O)[C@@H](NC(=O)[C@@H](NC(=O)CNC(=O)[C@H](CO)NC(=O)[C@@H]1CSC(C(=O)NCCCC[C@H](NC(=O)CCNC(=O)C2N[C@H](C(=O)N[C@@H](CO)C(=O)NCC(=O)N[C@H](C(=O)N[C@H](C(=O)N[C@@H](CCC(N)=O)C(=O)N[C@@H](CCC(N)=O)C(=O)N[C@@H](CCC(N)=O)C(=O)N[C@@H](CC(N)=O)C(=O)N[C@@H](CC(N)=O)C(=O)N[C@@H](CC(C)C)C(=O)N[C@@H](CC(C)C)C(=O)N[C@@H](CCCNC(=N)N)C(=O)N[C@@H](C)C(=O)N[C@H](C(=O)N[C@@H](CCC(=O)O)C(=O)N[C@@H](C)C(=O)N[C@@H](CCC(N)=O)C(=O)N[C@@H](CCC(N)=O)C(=O)N[C@@H](Cc3c[nH]cn3)C(=O)N[C@@H](CC(C)C)C(=O)N[C@@H](CC(C)C)C(=O)N[C@@H](CCC(N)=O)C(=O)N[C@@H](CC(C)C)C(=O)N[C@H](C(=O)N[C@H](C(=O)N[C@@H](Cc3c[nH]c4ccccc34)C(=O)NCC(=O)N[C@H](C(=O)N[C@@H](CCCCN)C(=O)N[C@@H](CCC(N)=O)C(=O)N[C@@H](CC(C)C)C(=O)N[C@@H](CCC(N)=O)C(=O)N[C@@H](C)C(=O)N[C@@H](CCCNC(=N)N)C(=O)N[C@H](C(=O)N[C@@H](CC(C)C)C(=O)O)[C@@H](C)CC)[C@@H](C)CC)C(C)C)[C@@H](C)O)[C@@H](C)CC)C(C)C)[C@@H](C)CC)CS2)C(=O)N[C@@H](CCCCNC(=O)CNC(=O)C2N[C@H](C(=O)N[C@@H](CO)C(=O)NCC(=O)N[C@H](C(=O)N[C@H](C(=O)N[C@@H](CCC(N)=O)C(=O)N[C@@H](CCC(N)=O)C(=O)N[C@@H](CCC(N)=O)C(=O)N[C@@H](CC(N)=O)C(=O)N[C@@H](CC(N)=O)C(=O)N[C@@H](CC(C)C)C(=O)N[C@@H](CC(C)C)C(=O)N[C@@H](CCCNC(=N)N)C(=O)N[C@@H](C)C(=O)N[C@H](C(=O)N[C@@H](CCC(=O)O)C(=O)N[C@@H](C)C(=O)N[C@@H](CCC(N)=O)C(=O)N[C@@H](CCC(N)=O)C(=O)N[C@@H](Cc3c[nH]cn3)C(=O)N[C@@H](CC(C)C)C(=O)N[C@@H](CC(C)C)C(=O)N[C@@H](CCC(N)=O)C(=O)N[C@@H](CC(C)C)C(=O)N[C@H](C(=O)N[C@H](C(=O)N[C@@H](Cc3c[nH]c4ccccc34)C(=O)NCC(=O)N[C@H](C(=O)N[C@@H](CCCCN)C(=O)N[C@@H](CCC(N)=O)C(=O)N[C@@H](CC(C)C)C(=O)N[C@@H](CCC(N)=O)C(=O)N[C@@H](C)C(=O)N[C@@H](CCCNC(=N)N)C(=O)N[C@H](C(=O)N[C@@H](CC(C)C)C(=O)O)[C@@H](C)CC)[C@@H](C)CC)C(C)C)[C@@H](C)O)[C@@H](C)CC)C(C)C)[C@@H](C)CC)CS2)C(=O)N[C@@H](CO)C(=O)N[C@@H](CO)C(=O)N[C@@H](C)C(N)=O)N1)[C@@H](C)CC)C(C)C)[C@@H](C)CC)[C@@H](C)O)C(C)C)C(=O)N[C@@H](CCCCN)C(=O)N[C@@H](CCC(N)=O)C(=O)N[C@@H](CC(C)C)C(=O)N[C@@H](CCC(N)=O)C(=O)N[C@@H](C)C(=O)N[C@@H](CCCNC(=N)N)C(=O)N[C@H](C(=O)N[C@@H](CC(C)C)C(=O)O)[C@@H](C)CC (stereo partly drawn) [Compound 3α-N36]
pIC50 (M-tropic (BAL) HIV-1): 8.14
percentage of inhibition of cell infection (R9 HIV-1 virus; 6 μM): around 10%
percentage of inhibition of cell infection (R9 HIV-1 virus; 200 μM): ~100%
pIC50 (T-tropic (R8) HIV-1; T-tropic (R8)): 7.26
pIC50 [2, 3]: 7.41
